The target in test [1] is T1, Full-length wild type HIV-1 integrase (SF1) (Human immunodeficiency virus type 1 group M subtype B, UniProt P04585).
T1 construct: made in house; host or cells: E. coli BL21 (DE3)
Description: Integrase strand-transfer scintillation proximity assay. The test is classed as biochemical. The text has this:
The annealed product represents preprocessed viral ds-DNA derived from the LTR U5 sequence of the viral genome. A ds-DNA control to test for non-specific interactions was made using a 3′ di-deoxy derivative of oligonucleotide #1 annealed to oligonucleotide #2. The CA overhang at the 5′ end of the non-biotinylated strand of the ds-DNA was created artificially by using a complimentary DNA oligonucleotide shortened by 2 base pairs. This configuration eliminates the requisite 3′ processing step of the integrase enzyme prior to the strand-transfer mechanism.
The annealed product had overhanging 3′ ends of poly(dA). […] The radiolabeled product was purified using a NENSORB cartridge and stored in stabilized aqueous solution (PerkinElmer).
Reagents: Streptavidin-coated polyvinyltoluene (PVT) SPA beads were purchased from Amersham Biosciences (Piscataway, N.J.). Cesium chloride was purchased from Shelton Scientific, Inc. (Shelton, Conn.). White, polystyrene, flat-bottom, non-binding surface, 96-well plates were purchased from Corning. All other buffer components were purchased from Sigma (St. Louis, Mo.) unless otherwise indicated.
Enzyme Construction: Full-length wild type HIV-1 integrase (SF1) sequence (amino acids 1-289) was constructed in a pET24a vector (Novagen, Madison, Wis.).
Enzyme Purification: Full length wild-type HIV Integrase was expressed in E. coli BL21 (DE3) cells and induced with 1 mM isopropyl-1 thio-β-D-galactopyranoside (IPTG) when cells reached an optical density between 0.8-1.0 at 600 nm. Cells were lysed by microfluidation in 50 mM HEPES pH 7.0, 75 mM NaCl, 5 mM DTT, 1 mM 4-(2-Aminoethyl)benzenesulfonylfluoride HCl (AEBSF). Lysate was then centrifuged 20 minutes at 11 k rpm in GSA rotor in Sorvall RC-5B at 4° C. Supernant was discarded and pellet resuspended in 50 mM HEPES pH 7.0, 750 mM NaCl, 5 mM DTT, 1 mM AEBSF and homogenized in a 40 mL Dounce homogenizer for 20 minutes on ice. Homogenate was then centrifuged 20 minutes at 11 k rpm in SS34 rotor in Sorvall RC-5B at 4° C. Supernant was discarded and pellet resuspended in 50 mM HEPES pH 7.0, 750 mM NaCl, 25 mM CHAPS, 5 mM DTT, 1 mM AEBSF. Preparation was then centrifuged 20 minutes at 11 k rpm in SS34 rotor in Sorvall RC-5B at 4° C.
Supernant was then diluted 1:1 with 50 mM HEPES pH 7.0, 25 mM CHAPS, 1 mM DTT, 1 mM AEBSF and loaded onto a Q-Sepharose column pre-equilibrated with 50 mM HEPES, pH 7.0, 375 mM NaCl, 25 mM CHAPS, 1 mM DTT, 1 mM AEBSF. The flow through peak was collected and NaCl diluted to 0.1 M with 50 mM HEPES pH 7.0, 25 mM CHAPS, 1 mM DTT, 0.5 mM AEBSF and loaded onto a SP-Sepharose column pre-equilibrated with 50 mM HEPES pH 7.0, 100 mM NaCl, 25 mM CHAPS, 1 mM DTT, 0.5 mM AEBSF. After washing the column with the equilibration buffer, a 100 to 400 mM NaCl gradient was run. The eluted integrase was concentrated and run on a S-300 gel diffusion column using 50 mM HEPES pH 7.0, 500 mM NaCl, 25 mM CHAPS, 1 mM DTT, 0.5 mM AEBSF. […] All columns were run in a 4° C. cold room.
Viral DNA Bead Preparation: Streptavidin-coated SPA beads were suspended to 20 mg/mL in 25 mM 3-morpholinopropanesulfonic acid (MOPS) (pH 7.2) and 1.0% NaN3. Biotinylated viral DNA was bound to the hydrated SPA beads in a batch process by combining […] of ds-DNA to 1 mg of suspended SPA beads (10 μL of 50 μM viral DNA to 1 mL of 20 mg/mL SPA beads). The mixture was incubated at 22° C. for a minimum of 20 min. with occasional mixing followed by centrifugation at 2500 rpm for 10 min.
On the technique in general: In a scintillation proximity assay essentially only radioactivity close to the scintillant gives light.

For test [2], the system named is HIV-1 RF virus in CEM-SS cells. Put plainly: HIV-1 cell protection assay (XTT dye reduction). The test is classed as cell-based. As to the method:
Six days later, 50 μl of XTT solution (1 mg/ml XTT tetrazolium and 20 nM phenazine methosulfate) were added to the wells and the plates were reincubated for four hours. Viability, as determined by the amount of XTT formazan produced, was quantified spectrophotometrically by absorbance at 450 nm.
Data from CPE assays were expressed as the percent of formazan produced in compound-treated cells compared to formazan produced in wells of uninfected, compound-free cells. […] The 50% cytotoxicity concentration (CC50) was calculated as the concentration of compound that decreased the percentage of formazan produced in uninfected, compound-treated cells to 50% of that produced in uninfected, compound-free cells. The therapeutic index was calculated by dividing the cytotoxicity (CC50) by the antiviral activity (EC50).

[3] abbreviates: strand-transfer SPA, 246 nM integrase, 50 nM host DNA, 37° C., 50 min, read-out: IC50.
[4] abbreviates: Human immunodeficiency virus 1, 144 h, RF strain of HIV-1, CEM-SS cells, XTT read-out after six days, read-out: EC50.
Setting [5] is: Human immunodeficiency virus 1, CEM-SS, 144 h.

Where two headings read alike, the source gives them in different places.

A word on the IC50: it is the concentration at which inhibition is half-maximal. Broadly, the EC50 is the midpoint of the concentration-response curve.

Regarding `CCCCOCCOCc1cn(Cc2ccc(F)cc2)c2cnc3c(=O)n(O)ccc3c12` [Example 82, 1-[(2-butoxyethoxy)methyl]-3-(4-fluorobenzyl)-7-hydroxy-3,7-dihydro-6H-pyrrolo[2,3-c]-1,7-naphthyridin-6-one], the IC50 in test [1] (setting [3]) was 10 nM. Moreover, the EC50 in test [2] (setting [4]) came to 0.37 nM.
For `O=C1c2ncc3c(c(CCCO)cn3Cc3ccc(F)cc3)c2CCN1O` [Example 120, 3-(4-fluorobenzyl)-7-hydroxy-1-(3-hydroxypropyl)-3,7,8,9-tetrahydro-6H-pyrrolo[2,3-c]-1,7-naphthyridin-6-one], in that order: 13 nM and 9 nM.
As to `O=C1c2ncc3c(c(CN4CCCC4)cn3Cc3ccc(F)cc3)c2CCN1O` [Example 23, 3-(4-fluorobenzyl)-7-hydroxy-1-(pyrrolidin-1-ylmethyl)-3,7,8,9-tetrahydro-6H-pyrrolo[2,3-c]-1,7-naphthyridin-6-one], the IC50 in test [1] is 27 nM. The molecule further yielded a half-maximal effective concentration (EC50) in test [2] (setting [5]) of 4 nM.
`CCn1ccnc1CN(C)Cc1cn(Cc2ccc(F)cc2)c2cnc3c(c12)CCN(O)C3=O` [Example 70, 1-{[[(1-ethyl-1H-imidazol-2-yl)methyl](methyl)amino]methyl}-3-(4-fluorobenzyl)-7-hydroxy-3,7,8,9-tetrahydro-6H-pyrrolo[2 3-c]-1,7-naphthyridin-6-one]: the IC50 in test [1] (setting [3]) was found to be 22 nM. The EC50 in test [2] (setting [4]) came to 43 nM.
On the same counts, the results for `O=C1c2ncc3c(c(CNCC(F)F)cn3Cc3ccc(F)cc3)c2CCN1O` [Example 81, 1-{[(2,2-difluoroethyl)amino]methyl}-3-(4-fluorobenzyl)-7-hydroxy-3,7,8,9-tetrahydro-6H-pyrrolo[2,3-c]-1,7-naphthyridin-6-one] are 8 nM and 0.32 nM.
Turning to `O=c1c2ncc3c(c(COCC4CCC4)cn3Cc3ccc(F)cc3)c2ccn1O` [Example 90, 1-[(cyclobutylmethoxy)methyl]-3-(4-fluorobenzyl)-7-hydroxy-3,7-dihydro-6H-pyrrolo[23-c]-17-naphthyridin-6-one], in test [1] (setting [3]), the IC50 came out at 59 nM. Besides, the EC50 in test [2] (setting [4]) came out at 14 nM.
On the same counts, the results for `COCCN(C)CCc1cn(Cc2ccc(F)cc2)c2cnc3c(c12)CCN(O)C3=O` [Example 118, 3-(4-fluorobenzyl)-7-hydroxy-1-{2-[(2-methoxyethyl)(methyl)amino]ethyl}-3,7,8,9-tetrahydro-6H-pyrrolo[2,3-c]-1,7-naphthyridin-6-one] are 20 nM and 13 nM.
On to `CC(CN(C)C)NCc1cn(Cc2ccc(F)cc2)c2cnc3c(=O)n(O)ccc3c12` (stereo not drawn) [Example 4, 1-({[2-(dimethylamino)-1-methylethyl]amino}methyl)-3-(4-fluorobenzyl)-7-hydroxy-3,7-dihydro-6H-pyrrolo[2,3-c]-1,7-naphthyridin-6-one], for which, in test [2] (setting [4]), the EC50 was 51 nM.
The molecule `O=C1c2ncc3c(c(CN4CCCCC4)cn3Cc3ccc(F)cc3)c2CCN1O` [Example 38, 3-(4-fluorobenzyl)-7-hydroxy-1-(piperidin-1-ylmethyl)-3,7,8,9-tetrahydro-6H-pyrrolo[2,3-c]-1,7-naphthyridin-6-one] gave an EC50 in test [2] (setting [5]) of 5.4 nM.
On the same count and under the same terms, the value for `N#Cc1cc(F)ccc1Cn1ccc2c3c(ncc21)C(=O)N(O)CC3` [Example 91, 5-fluoro-2-[(7-hydroxy-6-oxo-6,7,8,9-tetrahydro-3H-pyrrolo[2,3-c]-1,7-naphthyridin-3-yl)methyl]benzonitrile] was 2 nM; that for `COCCN(C)Cc1cn(Cc2ccc(F)cc2)c2cnc3c(c12)CCN(O)C3=O` [Example 77, 3-(4-fluorobenzyl)-7-hydroxy-1-{[(2-methoxyethyl)(methyl)amino]methyl}-3,7,8,9-tetrahydro-6H-pyrrolo[2,3-c]-1,7-naphthyridin-6-one] was 2 nM; that for `CN(C)Cc1cn(Cc2ccc(F)cc2)c2cnc3c(c12)CCN(O)C3=O` [Example 12, 1-[(dimethylamino)methyl]-3-(4-fluorobenzyl)-7-hydroxy-3,7,8,9-tetrahydro-6H-pyrrolo[2,3-c]-1,7-naphthyridin-6-one] was 13 nM.
With `O=C1c2ncc3[nH]ccc3c2CCN1O` [Example 83, 7-hydroxy-3,7,8,9-tetrahydro-6H-pyrrolo[2,3-c]-1,7-naphthyridin-6-one], in test [2] (setting [4]), the EC50 amounted to 14 nM.
In test [2] (setting [5]), `O=C1c2ncc3c(c(S(=O)(=O)N4CCCC4)cn3Cc3ccc(F)cc3)c2CCN1O` [Example 13, 3-(4-fluorobenzyl)-7-hydroxyl(pyrrolidin-1-ylsulfonyl)-3,7,8,9-tetrahydro-6H-pyrrolo[2 3-c]-1,7-naphthyridin-6-one] had an EC50 of 3 nM.
The same measure, in the same setting: the value for `O=C1c2ncc3c(c(CN4CCC(F)(F)C4)cn3Cc3ccc(F)cc3)c2CCN1O` [Example 37, 1-[(3,3-difluoropyrrolidin-1-yl)methyl]-3-(4-fluorobenzyl)-7-hydroxy-3,7,8,9-tetrahydro-6H-pyrrolo[2,3-c]-1,7-naphthyridin-6-one] was 1.5 nM.
As to `CCN(C)Cc1cn(Cc2ccc(F)cc2)c2cnc3c(=O)n(O)ccc3c12` [Example 3, 1-{[ethyl(methyl)amino]methyl}-3-(4-fluorobenzyl)-7-hydroxy-3,7-dihydro-6H-pyrrolo[2,3-c]-1,7-naphthyridin-6-one], the EC50 in test [2] (setting [4]) was 2.5 nM.
Same read-out and setting: the value for `CCCCC1Cc2c(ncc3c2ccn3Cc2ccc(F)cc2)C(=O)N1O` (stereo not drawn) [Example 1, 8-butyl-3-(4-fluorobenzyl)-7-hydroxy-3,7,8,9-tetrahydro-6H-pyrrolo[2,3-c]-1,7-naphthyridin-6-one] was 460 nM.
Take `O=c1c2ncc3c(c(CN4CCC(CO)CC4)cn3Cc3ccc(F)cc3)c2ccn1O` [Example 5, 3-(4-fluorobenzyl)-7-hydroxy-1-{[4-(hydroxymethyl)piperidin-1-yl]methyl}-3,7-dihydro-6H-pyrrolo[2,3-c]-1,7-naphthyridin-6-one]: the EC50 in test [2] (setting [4]) came to 12 nM.
On the same count and under the same terms, the value for `O=c1c2ncc3c(c(CN4CCCC4)cn3Cc3ccc(F)cc3)c2ccn1O` [Example 6, 3-(4-fluorobenzyl)-7-hydroxy-1-(pyrrolidin-1-ylmethyl)-3,7-dihydro-6H-pyrrolo[2,3-c]-1,7-naphthyridin-6-one] was 5.3 nM.
Same read-out and setting: then `C[C@H](O)CNCc1cn(Cc2ccc(F)cc2)c2cnc3c(=O)n(O)ccc3c12` [Example 2, 3-(4-fluorobenzyl)-7-hydroxy-1-({[(2S)-2-hydroxypropyl]amino}methyl)-3,7-dihydro-6H-pyrrolo[2,3-c]-1,7-naphthyridin-6-one], with 60.9 nM.

For the origin of these results see US20070099915A1, “INHIBITORS OF THE HIV INTEGRASE ENZYME” (PFIZER INC., priority 2005, published 2007).
